How the values were obtained:
T47D = assay: Growth inhibition of human T47D cells assessed as cell growth at 0.1 uM incubated for 48 hrs by sulforhodamine B assay relative to control; assay type: functional; settings: read-out: Activity
BT-549 = assay: Growth inhibition of human BT549 cells assessed as cell growth at 0.1 uM incubated for 48 hrs by sulforhodamine B assay relative to control; assay type: functional; settings: BT-549, 48 h, read-out: Activity
LOX IMVI [1] = assay: Growth inhibition of human LOXIMVI cells assessed as cell growth at 0.1 uM incubated for 48 hrs by sulforhodamine B assay relative to control; assay type: functional; settings: read-out: Activity
UO-31 = assay: Growth inhibition of human UO31 cells assessed as cell growth at 0.01 uM incubated for 48 hrs by sulforhodamine B assay relative to control; assay type: functional; settings: UO-31, 48 h, read-out: Activity
SW-620 = assay: Growth inhibition of human SW620 cells assessed as cell growth at 1 uM incubated for 48 hrs by sulforhodamine B assay relative to control; assay type: functional; settings: SW-620, 48 h, read-out: Activity
A498 = assay: Growth inhibition of human A498 cells assessed as cell growth at 0.01 uM incubated for 48 hrs by sulforhodamine B assay relative to control; assay type: functional; settings: A498, 48 h, read-out: Activity
OVCAR-5 = assay: Growth inhibition of human OVCAR5 cells assessed as cell growth at 0.01 uM incubated for 48 hrs by sulforhodamine B assay relative to control; assay type: functional; settings: OVCAR-5, 48 h, read-out: Activity
SF-268 [2] = assay: Growth inhibition of human SF268 cells assessed as cell growth at 100 uM incubated for 48 hrs by sulforhodamine B assay relative to control; assay type: functional; settings: SF-268, 48 h, read-out: Activity
RPMI-8226 [3] = assay: Growth inhibition of human RPMI8226 cells incubated for 48 hrs by sulforhodamine B assay; assay type: functional, cell-based; settings: RPMI-8226, 48 h
MDA-MB-435 = assay: Growth inhibition of human MDA-MB-435 cells incubated for 48 hrs by sulforhodamine B assay; assay type: functional, cell-based; settings: MDA-MB-435, 48 h
SK-MEL-28 = assay: Growth inhibition of human SK-MEL-28 cells incubated for 48 hrs by sulforhodamine B assay; assay type: functional, cell-based; settings: SK-MEL-28, 48 h
SF-268 [4] = assay: Growth inhibition of human SF268 cells assessed as cell growth at 1 uM incubated for 48 hrs by sulforhodamine B assay relative to control; assay type: functional; settings: SF-268, 48 h, read-out: Activity
LOX IMVI [5] = assay: Growth inhibition of human LOXIMVI cells assessed as cell growth at 1 uM incubated for 48 hrs by sulforhodamine B assay relative to control; assay type: functional; settings: read-out: Activity
K562 [6] = assay: Growth inhibition of human K562 cells assessed as cell growth at 0.01 uM incubated for 48 hrs by sulforhodamine B assay relative to control; assay type: functional; settings: K562, 48 h, read-out: Activity
SF-539 [7] = assay: Growth inhibition of human SF539 cells incubated for 48 hrs by sulforhodamine B assay; assay type: functional, cell-based; settings: SF-539, 48 h
ACHN = assay: Growth inhibition of human ACHN cells assessed as cell growth at 100 uM incubated for 48 hrs by sulforhodamine B assay relative to control; assay type: functional; settings: read-out: Activity
MDA-MB-468 = assay: Growth inhibition of human MDA-MB-468 cells incubated for 48 hrs by sulforhodamine B assay; assay type: functional, cell-based; settings: MDA-MB-468, 48 h
RPMI-8226 [8] = assay: Growth inhibition of human RPMI8226 cells assessed as cell growth at 0.01 uM incubated for 48 hrs by sulforhodamine B assay relative to control; assay type: functional; settings: RPMI-8226, 48 h, read-out: Activity
A549 = assay: Growth inhibition of human A549/ATCC cells incubated for 48 hrs by sulforhodamine B assay; assay type: functional, cell-based; settings: A549, 48 h
SF-295 = assay: Growth inhibition of human SF295 cells incubated for 48 hrs by sulforhodamine B assay; assay type: functional, cell-based; settings: SF-295, 48 h
MDA-MB-231 = assay: Growth inhibition of human MDA-MB-231 cells incubated for 48 hrs by sulforhodamine B assay; assay type: functional, cell-based; settings: MDA-MB-231, 48 h
SNB-19 = assay: Growth inhibition of human SNB19 cells assessed as cell growth at 100 uM incubated for 48 hrs by sulforhodamine B assay relative to control; assay type: functional; settings: SNB-19, 48 h, read-out: Activity
SF-539 [9] = assay: Growth inhibition of human SF539 cells assessed as cell growth at 0.1 uM incubated for 48 hrs by sulforhodamine B assay relative to control; assay type: functional; settings: SF-539, 48 h, read-out: Activity
HCT-116 = assay: Growth inhibition of human HCT116 cells assessed as cell growth at 100 uM incubated for 48 hrs by sulforhodamine B assay relative to control; assay type: functional; settings: HCT-116, 48 h, read-out: Activity
UACC-62 = assay: Growth inhibition of human UACC62 cells assessed as cell growth at 0.1 uM incubated for 48 hrs by sulforhodamine B assay relative to control; assay type: functional; settings: UACC-62, 48 h, read-out: Activity
K562 [10] = assay: Growth inhibition of human K562 cells assessed as cell growth at 1 uM incubated for 48 hrs by sulforhodamine B assay relative to control; assay type: functional; settings: K562, 48 h, read-out: Activity
RPMI-8226 [11] = assay: Growth inhibition of human RPMI8226 cells assessed as cell growth at 0.1 uM incubated for 48 hrs by sulforhodamine B assay relative to control; assay type: functional; settings: RPMI-8226, 48 h, read-out: Activity
Hs-578T = assay: Growth inhibition of human Hs578T cells assessed as cell growth at 100 uM incubated for 48 hrs by sulforhodamine B assay relative to control; assay type: functional; settings: read-out: Activity
[12] = read-out: LC50 (the source's name)
[13] = read-out: pLC50 (the source's name) (converted)

SMILES: COc1cc(Cl)cc(-c2nn(-c3cccc(NC(=O)c4cccc(C(F)(F)F)c4)c3)cc2-c2ccncc2)c1
- growth at 0.1 µM (T47D): 101%
- growth at 0.1 µM (BT-549): 94%
- growth at 0.1 µM (LOX IMVI [1]): 95%
- growth at 0.01 µM (UO-31): 58%
- growth at 1 µM (SW-620): 107%
- growth at 0.01 µM (A498): 58%
- growth at 0.01 µM (OVCAR-5): 58%
- growth at 100 µM (SF-268 [2]): 58%
- IC50 (RPMI-8226 [3]): 3.13 µM
- GI50 (RPMI-8226 [3]; read-out: GI50): 3.12 µM
- CC50 (RPMI-8226 [3]; [12]): > 100 µM
- TGI (RPMI-8226 [3]; read-out: TGI): > 100 µM
- GI50 (RPMI-8226 [3]; read-out: pGI50 (converted)): 3.16 µM
- CC50 (RPMI-8226 [3]; [13]): > 100 µM
- TGI (RPMI-8226 [3]; read-out: pTGI (converted)): > 100 µM
- GI50 (MDA-MB-435; read-out: GI50): > 100 µM
- LC50 (MDA-MB-435; read-out: LC50): > 100 µM
- TGI (MDA-MB-435; read-out: TGI): > 100 µM
- GI50 (MDA-MB-435; read-out: pGI50 (converted)): > 100 µM
- LC50 (MDA-MB-435; read-out: pLC50 (converted)): > 100 µM
- TGI (MDA-MB-435; read-out: pTGI (converted)): > 100 µM
- GI50 (SK-MEL-28; read-out: GI50): > 100 µM
- CC50 (SK-MEL-28; [12]): > 100 µM
- TGI (SK-MEL-28; read-out: TGI): > 100 µM
- GI50 (SK-MEL-28; read-out: pGI50 (converted)): > 100 µM
- CC50 (SK-MEL-28; [13]): > 100 µM
- TGI (SK-MEL-28; read-out: pTGI (converted)): > 100 µM
- growth at 1 µM (SF-268 [4]): 100%
- growth at 1 µM (LOX IMVI [5]): 88%
- growth at 0.01 µM (K562 [6]): 108%
- GI50 (SF-539 [7]; read-out: GI50): > 100 µM
- CC50 (SF-539 [7]; [12]): > 100 µM
- TGI (SF-539 [7]; read-out: TGI): > 100 µM
- GI50 (SF-539 [7]; read-out: pGI50 (converted)): > 100 µM
- CC50 (SF-539 [7]; [13]): > 100 µM
- TGI (SF-539 [7]; read-out: pTGI (converted)): > 100 µM
- growth at 100 µM (ACHN): 40%
- IC50 (MDA-MB-468): 4.26 µM
- GI50 (MDA-MB-468; read-out: GI50): 4.26 µM
- CC50 (MDA-MB-468; [12]): > 100 µM
- TGI (MDA-MB-468; read-out: TGI): > 100 µM
- GI50 (MDA-MB-468; read-out: pGI50 (converted)): 4.27 µM
- CC50 (MDA-MB-468; [13]): > 100 µM
- TGI (MDA-MB-468; read-out: pTGI (converted)): > 100 µM
- growth at 0.01 µM (RPMI-8226 [8]): 101%
- IC50 (A549): 3.62 µM
- GI50 (A549; read-out: GI50): 3.52 µM
- CC50 (A549; [12]): > 100 µM
- TGI (A549; read-out: TGI): > 100 µM
- GI50 (A549; read-out: pGI50 (converted)): 3.63 µM
- CC50 (A549; [13]): > 100 µM
- TGI (A549; read-out: pTGI (converted)): > 100 µM
- CC50 (SF-295; [12]): > 100 µM
- TGI (SF-295; read-out: TGI): > 100 µM
- GI50 (SF-295; read-out: pGI50 (converted)): 3.89 µM
- CC50 (SF-295; [13]): > 100 µM
- TGI (SF-295; read-out: pTGI (converted)): > 100 µM
- GI50 (MDA-MB-231; read-out: GI50): 1.38 µM
- CC50 (MDA-MB-231; [12]): > 100 µM
- TGI (MDA-MB-231; read-out: TGI): 99.7 µM
- GI50 (MDA-MB-231; read-out: pGI50 (converted)): 1.38 µM
- CC50 (MDA-MB-231; [13]): > 100 µM
- TGI (MDA-MB-231; read-out: pTGI (converted)): 10 µM
- growth at 100 µM (SNB-19): 72%
- growth at 0.1 µM (SF-539 [9]): 100%
- growth at 100 µM (HCT-116): 22%
- growth at 0.1 µM (UACC-62): 94%
- growth at 1 µM (K562 [10]): 90%
- growth at 0.1 µM (RPMI-8226 [11]): 97%
- growth at 100 µM (Hs-578T): 53%

From ChEMBL document CHEMBL4308841, “Synthesis, in vitro antiproliferative activity, and kinase inhibitory effects of pyrazole-containing diarylureas and diarylamides” (Eur J Med Chem, 2018)
